What was measured:
human GR [1] = molecular target: T1, human GR (Homo sapiens, UniProt P04150); assay: Trans-Activation Modulation of Glucocorticoid Receptor (GRAMMER), MMTV-LUC reporter, agonist mode; type: cell-based; parameters: endogenous in cells; conditions: for Emax: A549, A549 cells, maximum activity, read-out: Transactivation A549 Cells GRAMMER Emax; for EC50: A549 cells, inflection point, read-out: Transactivation A549 Cells GRAMMER IP
T1 sequence (P04150 1-777): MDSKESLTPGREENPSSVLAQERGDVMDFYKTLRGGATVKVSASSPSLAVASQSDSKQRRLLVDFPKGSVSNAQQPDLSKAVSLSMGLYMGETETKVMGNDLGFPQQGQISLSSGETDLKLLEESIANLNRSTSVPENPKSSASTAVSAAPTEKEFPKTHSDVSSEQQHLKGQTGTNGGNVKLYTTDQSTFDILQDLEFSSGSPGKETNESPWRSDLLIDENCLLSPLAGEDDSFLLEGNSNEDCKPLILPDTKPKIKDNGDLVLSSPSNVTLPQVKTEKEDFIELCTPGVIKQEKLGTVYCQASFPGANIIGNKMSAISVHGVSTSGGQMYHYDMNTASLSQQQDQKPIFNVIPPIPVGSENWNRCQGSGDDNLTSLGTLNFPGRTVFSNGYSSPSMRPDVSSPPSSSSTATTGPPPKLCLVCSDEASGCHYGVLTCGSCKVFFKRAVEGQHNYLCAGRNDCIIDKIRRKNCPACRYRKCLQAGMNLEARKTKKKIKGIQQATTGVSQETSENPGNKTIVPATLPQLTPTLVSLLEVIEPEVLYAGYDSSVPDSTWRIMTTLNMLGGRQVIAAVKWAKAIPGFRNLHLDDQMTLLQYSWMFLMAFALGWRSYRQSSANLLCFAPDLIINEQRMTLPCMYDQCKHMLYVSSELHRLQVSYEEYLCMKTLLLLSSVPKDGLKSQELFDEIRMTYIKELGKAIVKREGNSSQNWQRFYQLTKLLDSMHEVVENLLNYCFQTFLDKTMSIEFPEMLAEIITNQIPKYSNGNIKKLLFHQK
In short: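 Readout is luciferase from a modified MMTV LTR promoter after 24 h compound exposure alongside 10 nM dexamethasone (100% activity reference), DMSO ≤1%.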

human GR [2] = molecular target: T1, human GR; assay: Transrepression Assay (GITAR), TNFα-β-lactamase reporter in U937 cells; type: cell-based; parameters: U937 cells contain an endogenous glucocorticoid receptor (GR); endogenous in cells; host or cells: U937 cells stably transfected with the TNF-alpha promoter/beta-lactamase reporter; conditions: for GITAR > GRAMM % SEP: GITAR Emax minus GRAMMER Emax; for EC50: U937 cells, inflection point, read-out: Transrepression U937 Cells GITAR IP
In short: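 U937 cells stably carrying a TNF-α promoter–β-lactamase reporter, with endogenous GR, are preincubated with compound 30–45 min at 37 °C, then stimulated with PMA (5 ng/ml final) and LPS (100 ng/ml final) overnight (~18 hr). β-Lactamase is read with CCF2-AM substrate; repression by 100 nM dexamethasone defines 100%.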

[3] = U-937, U937 cells, maximum activity, read-out: Transrepression U937 Cells GITAR Emax
[4] = U-937, activity repressed by 100 nM dexamethasone alone set as 100%, read-out: maximal activity in the transrepression (GITAR) assay

SMILES | Emax (human GR [1]) [%] | EC50 (human GR [1]) [nM] | GITAR > GRAMM % SEP (human GR [2]) [%] | EC50 (human GR [2]) [nM] | Emax (human GR [2]; [3]) [%] | Emax (human GR [2]; [4]) [%]
COc1ccccc1CCN(C[C@H]1CCC2=Cc3c(cnn3-c3ccc(F)cc3)C[C@@]21C)S(=O)(=O)c1ccccc1F [Example 90, 2-fluoro-N-{[(4αR,5S)-1-(4-fluorophenyl)-4α-methyl-1,4,4α,5,6,7-hexahydrocyclopenta[f]indazol-5-yl]methyl}-N-[2-(2-methoxyphenyl)ethyl]benzenesulfonamide] | 33.5 | 354 | 34.0 | 651 | 67.6 | > 5
Cc1ccc(CCN(C[C@H]2CCC3=Cc4c(cnn4-c4ccc(F)cc4)C[C@@]32C)S(=O)(=O)c2ccccc2F)cc1 [Example 91, 2-fluoro-N-{[(4αR,5S)-1-(4-fluorophenyl)-4α-methyl-1,4,4α,5,6,7-hexahydrocyclopenta[f]indazol-5-yl]methyl}-N-[2-(4-methylphenyl)ethyl]benzenesulfonamide] | 10.7 | 643 | 50.8 | 973 | 61.5 | > 5
C[C@]12Cc3cnn(-c4ccc(F)cc4)c3C=C1CC[C@@H]2CN(CCc1ccccc1Cl)S(=O)(=O)c1ccccc1F [Example 92, N-[2-(2-chlorophenyl)ethyl]-2-fluoro-N-{[(4αR,5S)-1-(4-fluorophenyl)-4α-methyl-1,4,4α,5,6,7-hexahydrocyclopenta[f]indazol-5-yl]methyl}benzenesulfonamide] | 41.6 | 504 | 26.9 | 493 | 68.5 | > 5
CC(C1CCC2=Cc3c(cnn3-c3ccc(F)cc3)C[C@@]21C)N(CCc1ccccc1F)S(=O)(=O)CC(F)(F)F (stereo partly drawn) [Example 93, 2,2,2-trifluoro-N-[2-(2-fluorophenyl)ethyl]-N-{1-[(4αR)-1-(4-fluorophenyl)-4α-methyl-1,4,4α,5,6,7-hexahydrocyclopenta[f]indazol-5-yl]ethyl}ethanesulfonamide] | 50.9 | 296 | 20.8 | 231 | 71.8 | > 5
COCCN(C[C@H]1CCC2=Cc3c(cnn3-c3ccc(F)cc3)C[C@@]21C)S(=O)(=O)c1ccccc1F [Example 94, 2-fluoro-N-{[(4αR,5S)-1-(4-fluorophenyl)-4α-methyl-1,4,4α,5,6,7-hexahydrocyclopenta[f]indazol-5-yl]methyl}-N-(2-methoxyethyl)benzenesulfonamide] | 43.9 | 423 | 31.6 | 412 | 75.5 | > 5

Source: patent publication US8299048B2, “Hexahydrocyclopentyl[f]indazole sulfonamides and derivatives thereof as selective glucocorticoid receptor modulators” (Merck Sharp & Dohme Corp., priority 2008, dated 2012)
